Measurements reported in patent publication US20120214862A1, “MODULATION OF FACTOR 7 EXPRESSION” (ISIS Pharmaceuticals, Inc., priority 2009, published 2012).
Like-named read-outs stand apart in the source and are kept apart here. Each block holds one compound with its values, some of them ahead of it.

Legend:
BALB/c mice [1] = conditions: mouse, in vivo; for Blood: BALB/c, 30 min
BALB/c mice [2] = assay: Tail bleeding assay; conditions: for Blood: BALB/c mice, blood collected over 40 minutes, PBS 0.06
murine Factor 7 mRNA = assay: Liver Factor 7 mRNA by real-time RT-PCR in treated BALB/c mice; format: in vivo, mouse
Protocol: A control group of mice was injected subcutaneously with PBS twice a week for 3 weeks. After the treatment period, whole liver was collected for RNA and protein analysis, and plasma was collected for clotting analysis (PT/aPTT).
(§1) RNA was extracted from liver tissue for real-time RT-PCR analysis of Factor 7.
A control group of 3 mice was injected with a single dose of PBS, and mice in this group were sacrificed on day 1. Mice in all groups were sacrificed by cervical dislocation following anesthesia with 150 mg/kg ketamine mixed with 10 mg/kg xylazine administered by intraperitoneal injection. Liver was harvested for RNA analysis and plasma was collected for clotting analysis (PT and aPTT).
as §1
Mice from the first group were sacrificed on days 1 and 3 after the single dose. […] A control group of 3 mice was injected with PBS in a single dose. Mice from the control group were sacrificed 1 day later. Mice in all groups were sacrificed by cervical dislocation following anesthesia with 150 mg/kg ketamine mixed with 10 mg/kg xylazine administered by intraperitoneal injection. Liver was harvested for RNA analysis and plasma was collected for clotting analysis (PT and aPTT) for mice in all groups.
RNA was extracted from liver tissue for quantitative RT-PCR analysis of Factor 7.
(§2) Two control groups of BALB/c mice were treated with PBS, administered subcutaneously twice a week for 3 weeks. Thrombus formation was induced with FeCl3 in half of the mice while the rest of the mice were assayed for tail bleeding. […] Thrombus formation was induced with FeCl3 in all groups of the VT mice except the first control group.
as §1
A fifth group of BALB/c mice was treated with 3 mg/kg of warfarin, administered intraperioneally daily for 6 days. Four hours after the last dose of warfarin, mice were sacrificed. A control group of BALB/c mice were treated with PBS, administered subcutaneously twice a week for 3 weeks. Two days after the last dose of PBS, mice were anesthetized with 150 mg/kg ketamine mixed with 10 mg/kg xylazine administered by intraperitoneal injection. Thrombus formation was induced with FeCl3 in groups of mice except the first control group.

platelet factor-4 (PF-4) = assay: FeCl3 induced venous thrombosis (VT) model, real-time RT-PCR quantification of PF-4 in vena cava as measure of thrombus formation; format: in vivo, mouse; conditions: for PF-4 (percentage compared to PBS controls): vena cava, BALB/c mice
Protocol: as §2
(§3) In mice undergoing FeCl3 treatment, thrombus formation was induced by applying a piece of filter paper (2×4 min) pre-saturated with 10% FeCl3 solution directly on the vena cava. After 3 minutes of exposure, the filter paper was removed. Thirty minutes after the filter paper application, a fixed length of the vein containing the thrombus was dissected out for platelet analysis. Liver was collected for RNA analysis.
(§4) Real-time RT-PCR quantification of platelet factor-4 (PF-4) was used to quantify platelets in the vena cava as a measure of thrombus formation.
Six additional groups of BALB/c mice was treated with 0.5 mg/kg, 1 mg/kg, 2 mg·kg, 3 mg/kg, 4 mg/kg, or 5 mg/kg of warfarin, administered intraperioneally daily for 6 days. Four hours after the last dose of warfarin, mice were sacrificed. A control group of BALB/c mice were treated with PBS, administered subcutaneously twice a week for 3 weeks. Two days after the last dose of PBS, mice were anesthetized with 150 mg/kg ketamine mixed with 10 mg/kg xylazine administered by intraperitoneal injection. Thrombus formation was induced with FeCl3 in groups of mice except the first control group.
as §3, with “mm)” for “min)”
as §4
Thrombus formation was induced with FeCl3 in all of the mice except the first […] control groups. All mice were anesthetized with 150 mg/kg of ketamine mixed with 10 mg/kg of xylazine administered by intraperitoneal injection.
After 3 minutes of exposure, the filter paper was removed. Thirty minutes after the filter paper application, a fixed length of the vein containing the thrombus was dissected out for platelet analysis.
Real-time PCR quantification of PF-4 was used to quantify platelets in the vena cava as a measure of thrombus formation. […] Data is presented as percent of PF-4 mRNA as compared to the PBS+ FeCl3 control, […]

Blood (BALB/c mice [1]; ip, 5 mg/kg): 0.22 g | Blood (BALB/c mice [1]; ip, 10 mg/kg): 0.58 g | Blood (BALB/c mice [1]; sc, 10 mg/kg): 0.04 g | bleeding compared to PBS treated mice (BALB/c mice [1]; ip, 10 mg/kg): increased bleeding | bleeding compared to PBS treated mice (BALB/c mice [1]; sc, 10 mg/kg): less bleeding than PBS mice
SMILES: COc1ccc(-n2nc(C(N)=O)c3c2C(=O)N(c2ccc(N4CCCCC4=O)cc2)CC3)cc1 [Apixaban, reference compound]
bleeding compared to PBS treated mice (BALB/c mice [1]; ip, 5 mg/kg): same amount of bleeding as PBS treated mice

SMILES: CC(=O)CC(c1ccccc1)c1c(O)c2ccccc2oc1=O (stereo not shown) [warfarin, reference compound]
Blood (BALB/c mice [2]; 0.5 mg/kg i.p. daily for 6 days): 0.16 g | Blood (BALB/c mice [2]; 1 mg/kg i.p. daily for 6 days): 0.28 g | Blood (BALB/c mice [2]; 2 mg/kg i.p. daily for 6 days): 0.58 g | Blood (BALB/c mice [2]; 3 mg/kg i.p. daily for 6 days): 0.78 g | Blood (BALB/c mice [2]; 4 mg/kg i.p. daily for 6 days): 0.66 g | Blood (BALB/c mice [2]; 5 mg/kg i.p. daily for 6 days): 0.93 g | bleeding as compared to PBS control mice (BALB/c mice [2]; Example 17, 0.5-5 mg/kg intraperitoneally daily for 6 days): did increase bleeding | reduction of Factor 7 mRNA as compared to the PBS control (murine Factor 7 mRNA; Example 15, 3 mg/kg intraperitoneally daily for 6 days): did not result in significant reduction | % inhibition of Factor 7 mRNA (murine Factor 7 mRNA; liver, BALB/c mice, FeCl3 VT model, 3 mg/kg i.p. daily for 6 days, relative to PBS control): 10% | PF-4 in comparison to the PBS control (platelet factor-4 (PF-4); Example 16, dose of 1 mg/kg and higher, intraperitoneally daily for 6 days): reduction of PF-4 | PF-4 (percentage compared to PBS controls) (platelet factor-4 (PF-4); FeCl3, 0.5 mg/kg i.p. daily for 6 days): 165% | PF-4 (percentage compared to PBS controls) (platelet factor-4 (PF-4); FeCl3, 1 mg/kg i.p. daily for 6 days): 63% | PF-4 (percentage compared to PBS controls) (platelet factor-4 (PF-4); FeCl3, 2 mg/kg i.p. daily for 6 days): 47% | PF-4 (percentage compared to PBS controls) (platelet factor-4 (PF-4); FeCl3, 3 mg/kg i.p. daily for 6 days): 35% | PF-4 (percentage compared to PBS controls) (platelet factor-4 (PF-4); FeCl3, 4 mg/kg i.p. daily for 6 days): 22% | PF-4 (percentage compared to PBS controls) (platelet factor-4 (PF-4); FeCl3, 5 mg/kg i.p. daily for 6 days): 0%
